According to US20060205755A1, “Novel farnesyl protein transferase inhibitors as antitumor agents” (Schering Corporation, priority 2004, published 2006):

Assays:
Human tumor cells = assay: Soft Agar Assay (anchorage-independent growth, colony count); type: cell-based; settings: colony outgrowth 10-16 days at 37° C.
Description: Anchorage-independent growth is a characteristic of tumorigenic cell lines. Human tumor cells can be suspended in growth medium containing 0.3% agarose and an indicated concentration of a farnesyl transferase inhibitor. The solution can be overlayed onto growth medium solidified with 0.6% agarose containing the same concentration of farnesyl transferase inhibitor as the top layer. After the top layer is solidified, plates can be incubated for 10-16 days at 37° C. under 5% CO2 to allow colony outgrowth. After incubation, the colonies can be stained by overlaying the agar with a solution of MTT (3-[4,5-dimethyl-thiazol-2-yl]-2,5-diphenyltetrazolium bromide, Thiazolyl blue) (1 mg/mL in PBS). Colonies can be counted and the IC50's can be determined.

[1] = biological target: purified human farnesyl protein transferase (Homo sapiens, UniProt P49354+P49356); assay: FPT activity: transfer of [3H] farnesyl from [3H] farnesyl pyrophosphate to biotinylated H-ras peptide (SPA); type: biochemical; settings: 0.03 nM enzyme, 37° C., 60 minutes
Description: FPT activity was determined by measuring the transfer of [^3H] farnesyl from [^3H] farnesyl pyrophosphate to a biotinylated peptide derived from the C-terminus of H-ras (biotin-CVLS). The reaction mixture contains: 50 mM Tris pH7.7, 5 mM MgCl2, 5 μM Zn^++, 5 mM DTT, 0.1% Triton-X, 0.05 μM peptide, 0.03 nM purified human farnesyl protein transferase, 0.180 μM [^3H] farnesyl pyrophosphate, plus the indicated concentration of tricyclic compound or vehicle control in a total volume of 100 μl. The reaction was incubated in a Vortemp shaking incubator at 37° C., 45 RPM for 60 minutes and stopped with 150 μl of 0.25 M EDTA containing 0.5% BSA and 1.3 mg/ml Streptavidin SPA beads. Radioactivity was measured in a Wallach 1450 Microbeta liquid scintillation counter. Percent inhibition was calculated relative to the vehicle control.

| IC50 (Human tumor cells) | IC50 [1] | Structure (SMILES) |
| --- | --- | --- |
| ≥ 9 nM | – | Cn1cncc1C(NC(=O)OC1(C)CC1)C1=Cc2cccnc2C(C2CCN(C(=O)OC3(C)CC3)CC2)c2ccc(Cl)cc21 (single isomer, unassigned) [Example 4] |
| ≥ 9 nM | – | Cn1cncc1C(NC(=O)OC1(C)CC1)C1=Cc2cccnc2C(=C2CCN(C(=O)OC(C)(C)C)CC2)c2ccc(Cl)cc21 (centres unmarked) [Example 1] |
| – | 0.9 nM | Cn1cncc1C(NC(=O)OC1(C)CC1)C1=Cc2cccnc2C(=C2CCN(C(=O)OC3(C)CC3)CC2)c2ccc(Cl)cc21 (centres unmarked) [Example 2] |
| ≥ 9 nM | – | Cn1cncc1C(NC(=O)OC1(C)CC1)C1=Cc2cccnc2C(O)(C2CCN(C(=O)OC(C)(C)C)CC2)c2ccc(Cl)cc21 (centres unmarked) [Example 5] |
| ≥ 9 nM | – | Cn1cncc1C(NC(=O)OC1(C)CC1)C1=Cc2cccnc2C(O)(C2CCN(C(=O)OC3(C)CC3)CC2)c2ccc(Cl)cc21 (centres unmarked) [Example 6] |
